Results as given in publication PMC7795425, “Synthesis and Biological Activity of Brassinosteroid Analogues with a Nitrogen-Containing Side Chain” (International Journal of Molecular Sciences, 2020).

Key:
[1] = Calcein AM cytotoxicity assay, CEM; assay type: cell-based; conditions: human, CEM T-lymphoblastic leukemia cells, IC50 > 50 µM means inactive, read-out: Cytotoxic activity IC50
Method: (§1) The effect of the prepared BRs derivatives on the viability (in Calcein AM assays) of BJ human fibroblasts (as an example of a “normal” cell line) and human cancer cell lines of various histopathological origins, including: T-lymphoblastic leukemia CEM, breast carcinoma MCF7 and cervical carcinoma cell line HeLa, was also studied. Cells of all these lines were exposed to six 3-fold dilutions of each drug for 72 h prior to determination of cell survival. The IC50 (concentration leading to 50% inhibition of viability) values obtained from the Calcein AM cytotoxicity assay were calculated. […] All tested BR nitrogen-containing derivatives had no detectable activity, even when tested in concentrations of up to 50 µM.
(§2) The screening cell lines: T-lymphoblastic leukemia CEM; breast carcinoma MCF7 (estrogen-sensitive); cervical carcinoma cell line HeLa; and human foreskin fibroblasts BJ, were obtained from the American Type Culture Collection (Manassas, VA, USA). Cells were cultured in DMEM (Dulbecco’s Modified Eagle Medium, Sigma, St. Louis, MO, USA). Media used were supplemented with 10% fetal bovine serum, 2mM L-glutamine and 1% penicillin–streptomycin. The cell lines were maintained under standard cell culture conditions at 37 °C and 5% CO2 in a humid environment.
(§3) Cells were subcultured twice or three times a week using the standard trypsinization procedure. Cytotoxicity in cancer cell lines after 72 h was determined as described earlier. Control cultures were treated with DMSO alone, and the final concentration of DMSO in the mixture never exceeded 0.6%. Six serial 3-fold dilutions of the test substances were added at time zero in 20 μL aliquots to the microtiter plate wells and the highest final concentration in the wells was 50 μM.
(§4) Table S3: Cytotoxic activities, IC50 (µM/L)a, of compounds in three tumor and one normal fibroblast
(§5) Compound CEM MCF7 HeLa BJ
(§6) a The lowest concentration that kills 50% of cells.
(§7) b Increase of cell proliferation.

[2] = system: Arabidopsis thaliana L. (Columbia ecotype, Col-0) seedlings; assay: Arabidopsis root sensitivity bioassay; assay type: in vivo; conditions: for root length, mean: 7-day-old seedlings; for inhibitory effect on Arabidopsis root growth: tested 0.1 to 10 nM, selected derivatives also 100 nM
Method: Several bioassays such as the first bean internode, root growth and rice lamina inclination have been developed to evaluate the growth-promoting activity of BR derivatives. In this work, the activity of new BR analogues was evaluated using the Arabidopsis root sensitivity test because of its simplicity and high sensitivity for BRs.. The characteristic effect of exogenously applied BRs on light-grown Arabidopsis is dose-dependent—BRs in higher concentrations cause inhibition of root growth; vice versa, low concentrations are stimulating. The results obtained for 24-epiBL, which was used as a positive control, and the BR derivatives are shown in Figure 2, Figure 3 and Figure S21. […] A similar trend was shown for dimethylammonium hydrochloride 22a and morpholinium hydrochloride 22e with a long side chain. For numerical values of the average, SD and p-value, see Table S2.
The biological activity of the new BRs derivatives was tested by an Arabidopsis sensitivity bioassay which was performed according to [28]. Briefly, seedlings of Arabidopsis thaliana L. (Columbia ecotype, Col-0) were stratified for 2 days at 4 °C and germinated on vertical half-strength Murashige and Skoog (1% w/v sucrose) agar at 22 °C in a 16 h/8 h light–dark cycle. The plates contained concentrations of 24-epiBL (as positive control) and BR derivatives ranging from 0.1 to 10 nM, respectively 100 nM (for selected derivatives only). After 7 days, roots were straightened on solid media plates and scanned with an Epson high-resolution scanner. The entire root length was measured with ImageJ (http://rsbweb.nih.gov/ij/). For each treatment, more than 15 seedlings were analyzed in two biological repeats, and p-values were calculated with the two-tailed Student t-test using Excel software.
Figure 2 Effect of selected brassinosteroid derivatives on the inhibition of Arabidopsis root length. Seven-day-old Arabidopsis thaliana seedlings (Columbia ecotype, Col-0) were treated with DMSO as control/24epiBL/BR short side chain derivatives; (A)—amides, (B)—amines, (C)—ammonium hydrochlorides. For each treatment, more than 15 seedlings were analyzed in two biological repeats. Error bars represent SD. Asterisks represent significant changes (t-test); * represents p-value < 0.05, in comparison to control.
Figure 3 Effect of selected brassinosteroid derivatives on the inhibition of Arabidopsis root length. Seven-day-old Arabidopsis thaliana seedlings (Columbia ecotype, Col-0) were treated with DMSO as control/24epiBL/BR long side chain derivatives; (A)—amides, (B)—ammonium hydrochlorides. For each treatment, more than 15 seedlings were analyzed in two biological repeats. Error bars represent SD. Asterisks represent significant changes (t-test); * represents p-value < 0.05, in comparison to control.
Table S2: Data for figure 2, 3, and S21. P value <0.05(t-test), comparison to control.
control (mean ± SD) 16.3 ± 1.21
*only selected compounds were tested
mean(mm) SD t-test mean (mm) SD t-test mean (mm) SD t-test mean (mm) SD t-test
(1 picture or pasted object on this page, not shown here)

[3] = Calcein AM cytotoxicity assay, BJ; assay type: cell-based; conditions: human, BJ foreskin fibroblasts (normal cell line), IC50 > 50 µM means inactive, read-out: Cytotoxic activity IC50
Method: as §1, §2, §3, §4, §5, §6, §7

[4] = Calcein AM cytotoxicity assay, HeLa; assay type: cell-based; conditions: human, HeLa cervical carcinoma cells, IC50 > 50 µM means inactive, read-out: Cytotoxic activity IC50
Method: as §1, §2, §3, §4, §5, §6, §7

[5] = Calcein AM cytotoxicity assay, MCF7; assay type: cell-based; conditions: human, MCF7 breast carcinoma cells (estrogen-sensitive), MCF7, 72 h, IC50 > 50 µM means inactive, read-out: Cytotoxic activity IC50
Method: as §1, §2, §3, §4, §5, §6, §7

[6] = 100 nM (only selected compounds), control 14.61 ± 0.85

SMILES	melting point	IC50 at 72 h [1]	root length, mean ([2]; 0.1 nM, control 16.3 ± 1.21)	root length, mean ([2]; 1 nM, control 16.3 ± 1.21)	root length, mean ([2]; 10 nM, control 16.3 ± 1.21)	root length, mean [2, 6]	IC50 at 72 h [3]	IC50 at 72 h [4]	IC50 at 72 h [5]	inhibitory effect on Arabidopsis root growth [2]
CCN(CC)C[C@@H](C)[C@H]1CC[C@H]2[C@@H]3CC(=O)[C@H]4C[C@H](O)[C@H](O)C[C@]4(C)[C@H]3CC[C@]12C [15b, (20S)-20-(N,N-diethylaminomethyl)-2α,3α-dihydroxy-5α-pregnane-6-one]	> 190 °C (dec.)	> 50 µM	14.93 mm	16.13 mm	14.67 mm	13.903 mm	> 50 µM	> 50 µM	> 50 µM	
C[C@H](CN1CCCCC1)[C@H]1CC[C@H]2[C@@H]3CC(=O)[C@H]4C[C@H](O)[C@H](O)C[C@]4(C)[C@H]3CC[C@]12C [15d, (20S)-20-(piperidin-1-ylmethyl)-2α,3α-dihydroxy-5α-pregnane-6-one]	> 210 °C (dec.)	> 50 µM	14.18 mm	14.11 mm	15.15 mm		> 50 µM	> 50 µM	> 50 µM	
C[C@H](CN(C)C)[C@H]1CC[C@H]2[C@@H]3CC(=O)[C@H]4C[C@H](O)[C@H](O)C[C@]4(C)[C@H]3CC[C@]12C [15a, (20S)-20-(N,N-dimethylaminomethyl)-2α,3α-dihydroxy-5α-pregnane-6-one]	219 to 221 °C	> 50 µM	14.83 mm	14.29 mm	14.34 mm		> 50 µM	> 50 µM	> 50 µM	
CCN(CC)C[C@H](O)[C@H](O)[C@@H](C)[C@H]1CC[C@H]2[C@@H]3CC(=O)[C@H]4C[C@H](O)[C@H](O)C[C@]4(C)[C@H]3CC[C@]12C.Cl [22b, N,N-diethyl-((20S,22R,23S)-2α,3α,22,23-tetrahydroxy-6-oxo-5α-cholan-24-yl)aminium chloride]	> 250 °C (dec.)	> 50 µM	14.51 mm	15.32 mm	15.48 mm	15.160 mm	> 50 µM	> 50 µM	> 50 µM	the same effect only at low concentrations
C[C@H]([C@@H](O)[C@H](O)C(=O)N1CCOCC1)[C@H]1CC[C@H]2[C@@H]3CC(=O)[C@H]4C[C@H](O)[C@H](O)C[C@]4(C)[C@H]3CC[C@]12C [20e, 4-((20S,22R,23S)-2α,3α,22,23-tetrahydroxy-6-oxo-5α-cholan-24-oyl)morpholine]	> 210 °C (dec.)	> 50 µM	17.44 mm	16.78 mm	15.97 mm		> 50 µM	> 50 µM	> 50 µM	
CCN(CC)C(=O)[C@@H](O)[C@H](O)[C@@H](C)[C@H]1CC[C@H]2[C@@H]3CC(=O)[C@H]4C[C@H](O)[C@H](O)C[C@]4(C)[C@H]3CC[C@]12C [20b, N,N-diethyl-(20S,22R,23S)-2α,3α,22,23-tetrahydroxy-6-oxo-5α-cholan-24-amide]	> 160 °C (dec.)	> 50 µM	16.78 mm	15.32 mm	14.99 mm		> 50 µM	> 50 µM	> 50 µM	
C[C@H](CN1CCCC1)[C@H]1CC[C@H]2[C@@H]3CC(=O)[C@H]4C[C@H](O)[C@H](O)C[C@]4(C)[C@H]3CC[C@]12C [15c, (20S)-20-(pyrrolidin-1-ylmethyl)-2α,3α-dihydroxy-5α-pregnane-6-one]	> 240 °C (dec.)	> 50 µM	16.78 mm	14.37 mm	17.21 mm		> 50 µM	> 50 µM	> 50 µM	
C[C@H](CN1CCOCC1)[C@H]1CC[C@H]2[C@@H]3CC(=O)[C@H]4C[C@H](O)[C@H](O)C[C@]4(C)[C@H]3CC[C@]12C [15e, (20S)-20-(morpholin-4-ylmethyl)-2α,3α-dihydroxy-5α-pregnane-6-one]	> 210 °C (dec.)	> 50 µM	17.21 mm	17.61 mm	16.21 mm	13.731 mm	> 50 µM	> 50 µM	> 50 µM	
C[C@H]([C@@H](O)[C@H](O)C(=O)N1CCCC1)[C@H]1CC[C@H]2[C@@H]3CC(=O)[C@H]4C[C@H](O)[C@H](O)C[C@]4(C)[C@H]3CC[C@]12C [20c, 1-((20S,22R,23S)-2α,3α,22,23-tetrahydroxy-6-oxo-5α-cholan-24-oyl)pyrrolidine]	> 200 °C (dec.)	> 50 µM	15.97 mm	15.81 mm	15.15 mm	14.873 mm	> 50 µM	> 50 µM	> 50 µM	weak inhibitory effect
